# Source: the NIST ThermoML archive (doi:10.1021/je0342318)
# Numbers after ± are expanded uncertainties.
# Legend:
# [1] = Liquid; for mass density: 298.15 K, 101.33 kPa
# [2] = refractive index (Na D-line) (dimensionless); conditions: 298.15 K; 101.33 kPa; Liquid
Normal boiling temperature [1],refractive index [2],mass density [1],Compound,mass density ([1]; Vibrating tube method)
78.26 ± 0.1 °C,1.3592 ± 0.0006,,CCO [ethanol],785.04 ± 0.51 kg/m3
100.81 ± 0.5 °C,1.4204 ± 0.0006,764.87 ± 0.44 kg/m3,CC1CCCCC1 [methylcyclohexane],

Compound,Normal boiling temperature [1],refractive index [2],mass density [1],mass density ([1]; Vibrating tube method)
"Cc1ccc(C)cc1 [1,4-dimethylbenzene]",138.08 ± 0.5 °C,1.493 ± 0.001,,856.55 ± 0.56 kg/m3
